Reference: paper PMC8097335, “A High‐Affinity Calmodulin‐Binding Site in the CyaA Toxin Translocation Domain is Essential for Invasion of Eukaryotic Cells” (Advanced Science, 2021)

Tests used:
calmodulin (CaM) = molecular target: T1, calmodulin (CaM) (Homo sapiens, UniProt P0DP23); assay: Peptide titrations by CaM followed by tryptophan fluorescence, and ITC (Kd for CaM); type: binding; conditions: for Decrease of affinity for CaM relative to P454: from Table S3; for Kd: holo-CaM, from fluorescent titrations and ITC, 25 °C, average of at least three independent replicates; for Kd / ∆GKd for CaM: S.D. within ± 10%; for ∆GKd for CaM: ΔGKd = RTln(Kd)
T1 construct: made in house; host or cells: E. coli
From the text: peptides by CaM and is expressed as follows: 𝐾𝐾 𝑑𝑑 = [𝑃𝑃 ]∗[𝐶𝐶𝐶𝐶𝐶𝐶 ][𝑃𝑃:𝐶𝐶𝐶𝐶𝐶𝐶] , given 𝐾𝐾𝑑𝑑[𝐶𝐶𝐶𝐶𝐶𝐶]= [𝑃𝑃 ][𝑃𝑃 :𝐶𝐶𝐶𝐶𝐶𝐶]and the fraction of complex, fP:CaM, i s: 𝑓𝑓𝑃𝑃:𝐶𝐶𝐶𝐶𝐶𝐶 = [𝑃𝑃 :𝐶𝐶𝐶𝐶𝐶𝐶 ][𝑃𝑃:𝐶𝐶𝐶𝐶𝐶𝐶]+[𝑃𝑃]= 11+ [𝑃𝑃 ]= 11+ 𝐾𝐾𝑑𝑑.

[1] = Peptide titrations by SUVs followed by tryptophan fluorescence (solution-to-membrane partition); type: physicochemical; conditions: for Partition coefficient KX: POPC:POPG 8:2 SUVs, buffer A pH 7.4, 25 °C, tryptophan fluorescence ratio 330/370 nm; for Partition coefficient KX / ∆GKx for POPC POPG 8:2: S.D. within ± 10%; for Kd: converted from KX: [W]/KX = Kd, [W] = 55.5 M, read-out: Kd for POPC:POPG 8:2; for ∆GKx for POPC POPG 8:2: ∆GKx = -RT Ln Kx
Method: Lipid vesicles preparation
Small unilamellar vesicles (SUVs) and large unilamellar vesicles (LUVs) were prepared with POPC and POPG at a molar ratio of 8:2, at a lipid concentration of 10 mM in buffer A, as previously described 1. Briefly, SUVs and LUVs were prepared by reverse phase evaporation and filtered through polycarbonate filters of 1 μm and 0.2 μm of pore size diameter to obtain L UV. SUVs were further sonicated. The hydrodynamic diameters and mean net charge of the vesicles were measured by dynamic light scattering (DLS) and electrophoretic mobility, respectively, using a ZetaSizer NanoZS (Malvern Pananalytical , Orsay, France) 11.
Peptide titrations bySUV s and CaM followed by tryptophan fluorescence
Titrations were carried out with a FP-8200 Jasco spectrofluorimeter, equipped with a Pelt ie r - thermostated ETC-272T at 25°C. A bandwidth of 5 nm was used for both excitation and […]
(Hellma, France) with constant stirring. Fluorescence emission was recorded between 300 and […]
400 nm at a scan rate of 100 nm/min, with an excitation wavelength of 280 nm. Fluorescence emission spectra were corrected for SUV or CaM baselines . Fluorescence intensity ratio at 330 nm over 370 nm was use d to measure the partition coefficient (K X) of peptides between the solution andmembrane s 1, 12 and the affinity (K d) of peptides for CaM 13.
Determination of partition coefficient KX and dissociation constant Kd from […]
The partition coefficient KX is defined as the ratio of protein in the lipid (PL) and in buffer […]
(PW) pha se s 12, 14, expressed by: KKXX = [LL ]? , giving[PPWW ] [PPWW ]= [WW], where [W] the […]
concentration of water (55.5 M) and [L] the lipid concentration.
The fraction of peptide partitioned into the membrane, fPL, is equal to:
ffPPLL = [PPLL ][PPTT ]= [PPLL ][PPLL ]+[PPWW ]= 11+([PPWW ])= 11+( [WW]), where PT is the total concentration of peptides [PP TT ]= [PP LL ]+ [PP WW ]. […]
The equations a re fitted to the experimental data using the KaleidaGraph software, providing the KX and K d value s. The partition coefficient is related to the apparent dissociation constant:
KKXX × KKdd = [WW ] and to the free energy of partition ΔG Kx = -RTln(K X), where ΔG is the free energy in kcal/mol, R the gas constant (R = 1.98 x 10-3 kcal/mol/K) and T the temperature i n Kelvin. The free energy of peptide CaM interaction, ∆G Kd, is given by ΔG Kd = RTln(K d).
Sedimentation velocity-Analytical ultracentrifugation (SV -AUC) […]
ratio 1:1 (at 70 µM each). Samples were incubated 2h at 20°C in the ultracentrifuge and, then span at 42,000 rpm in an An-50 Ti rotor. […]

[2] = Membrane permeabilization of ANTS/DPX-loaded LUVs; conditions: for CP1/2, peptide concentration required to induce recovery of 50% of ANTS fluorescence intensity upon LUVs permeabilization: ANTS:DPX LUVs POPC:POPG 8:2, 0.45 mM lipid, buffer A pH 7.4, 25 °C, ex 390/em 515 nm, S.D. ± 5%; for Vesicle permeabilization (in words): ANTS:DPX LUVs POPC:POPG 8:2
Method: To monitor membrane permeabilization induced by peptides, ANTS (fluorophore probe) and
DPX (quencher) were encapsulated into large unilamellar vesicles (LUVs). The LUVs were
prepared at a concentration of 10 mM lipid at a POPC:PO PG molar ratio of 8:2 containing 20
mM ANTS and 60 mM DPX. The multilamellar vesicle suspension was extrudedthrough 0.4-
and 0.2 μm polycarbonate filters to produce LUVs. The unencapsulated ANT S a nd DPX we re
removed by gel filtration with a 5 mL Sephadex G -25 column (GE Healthcare Life Sciences ).
For permeabilization assays, LUVs were incubated in buffer A at 0.45 mM lipid
concentration at 25°C in a 101-QS cuvette (Hellma, France) and under constant stirring.
excitation wavelength was set at 390 nm and the emission of ANTS was continuously
measured at 515 nm. The maximum intensity of permeabilization, corresponding to the
maximum recovery of ANTS fluorescence, was measured after addition of 0.1% of Triton
X100. The concentration of membrane-bound peptide s required to induce the recovery of half
intensity of the ANTS fluorescence (C P1/2) was extracted from the permeabilization intensity
a s a function of peptide concentration 1.
LUVs were incubated in buffer B at a lipid concentration of 0.45 mM.
After a few seconds of permeabilization,
holo-Ca M wa s added t o t he solution at a peptide:Ca M molar ratio of 1:3. EDT A wa s
subsequently added in excess to chelate calcium and convert holo -CaM to apo -C a M .

[3] = Synchrotron radiation circular dichroism, alpha-helical content (Bestsel); type: physicochemical; conditions: 25 °C, far-UV SRCD; for alpha-helical content, TFE 20%: 20% TFE; for alpha-helical content, POPC:POPG 8:2: SUVs POPC:POPG 8:2 at 2 mM lipid; for alpha-helical content, Solution: buffer A
Method: Synchrotron Radiation Circular Dichroism
Synchrotron radiation circular dichroism (SRCD) was performed on the DISCO beamline of the synchrotron SOLEIL (Saint -Aubin, France) . Spectra were recorded at 25°C with an integration time of 1.2 s and a bandwidth of 1 nm with a resolution of 1 nm. A far-UV spectrum represents the average of four individual scans. QS cells (Hellma, France) with a pathlength of 20, 50, 100 or 200 μm (depending on final protein concentrations) were used to record spectra in the fa r -UV range (from 190 to 250 nm). CD spectra of peptides and proteins were measured in buffers A and B, 20% of trifluoroethanol (TFE), in the presence of SUVs (POPC :PO PG 8: 2) or Ca M. Secondary structure content was estimated using Bestsel software […]
Table S8: Estimation of the α -helical content of P454-derived peptides. The secondary structure content is estimated using the on-line Bestsel software 17 available at http://bestsel.elte.hu/index.php. […]
peptide in buffer A, in 20% TFE and in the presence of POPC POPG (molar ratio 8:2) at 2 mM lipid concentration. The far -UV CD spectra of several P454-derived peptides are shown […]

| Substance | Decrease of affinity for CaM relative to P454 (calmodulin (CaM)) | Kd (calmodulin (CaM)) [µM] | ∆GKd for CaM (calmodulin (CaM)) [kcal/mol] | Partition coefficient KX [1] | Kd [1] [µM] | ∆GKx for POPC POPG 8:2 [1] [kcal/mol] | CP1/2, peptide concentration required to induce recovery of 50% of ANTS fluorescence intensity upon LUVs permeabilization [2] [µM] | alpha-helical content, TFE 20% [3] [%] | alpha-helical content, POPC:POPG 8:2 [3] [%] | alpha-helical content, Solution [3] [%] | Vesicle permeabilization (in words) [2] |
| --- | --- | --- | --- | --- | --- | --- | --- | --- | --- | --- | --- |
| Ac-ASAHAGQRAAQGAQAVAAAQRLVHAIALMTQ-NH2 [P454 W458A-L463A] | 4 fold | 0.64 | -8.4 | 22 ×10^3 | 2550 | -5.9 | 6.59 | 56 | 8 ± 2 | 7 ± 1 | – |
| Ac-ASAHWGQRAAQGAQAVAAAQRAVSAAALMTQ-NH2 [P454 L463A-L475A-H477S-I479A] | – | – | -6.8 | 35 ×10^3 | 1580 | -6.2 | > 50 | 38 ± 2 | 5 ± 2 | 4 ± 1 | do not permeabilize vesicles |
| Ac-ASAHWGQRALQGAQAVAAAQRLVHALALMTQ-NH2 [P454 I479L] | – | 0.06 | -9.8 | 700 ×10^3 | 80 | -7.9 | 0.04 | 51 ± 1 | 51 ± 5 | 13 ± 1 | – |
| Ac-ASAHWGQRAAQGAQAVAAAQRLVHAIALMTQ-NH2 [P454 L463A] | – | 0.2 | -9.1 | 630 ×10^3 | 90 | -7.9 | 0.41 | 48 ± 3 | 19 ± 2 | 14 ± 2 | – |
| Ac-ASAHWGQRALQGAQAVAAAQRLVHAVALMTQ-NH2 [P454 I479V] | – | 0.11 | -9.4 | 560 ×10^3 | 100 | -7.8 | 0.09 | 47 ± 6 | 37 ± 2 | 2 ± 1 | – |
| Ac-ASAHWGQRALQGAQAVAAAQRAVSAAALMTQ-NH2 [P454 L475A-H477S-I479A] | ≈ 20 fold | 1.54 | -7.9 | 18 ×10^3 | 3160 | -5.8 | 9.03 | 51 ± 4 | 6 ± 2 | 6 ± 2 | – |
| Ac-ASAHWGQRALQGAQAVAAAQRAVHAIALMTQ-NH2 [P454 L475A] | – | 0.12 | -9.4 | 350 ×10^3 | 160 | -7.7 | 0.64 | 45 ± 1 | 15 ± 1 | 5 ± 2 | – |
| Ac-ASAHWGQQALQGAQAVAAAQQLVHAIALMTQ-NH2 [P454 R12Q] | – | 2.09 | -7.7 | 70 ×10^3 | 790 | -6.6 | 0.23 | 50 ± 2 | 23 ± 1 | 8 ± 4 | – |
| Ac-ASAHWGQRALQGAQAVAAAQRLVHAAALMTQ-NH2 [P454 I479A] | – | – | -7.9 | 330 ×10^3 | 170 | -7.5 | 7.86 | 29 ± 1 | 12 ± 3 | 8 ± 2 | – |
| Ac-ASAHAGQRALQGAQAVAAAQRLVHAAALMTQ-NH2 [P454 W458A-I479A] | – | 2.04 | -7.7 | 4.2 ×10^3 | 13200 | -4.9 | > 80 | 55 ± 1 | 7 ± 3 | 10 ± 3 | do not permeabilize vesicles |
